Source: ChEMBL document CHEMBL5053535, “Design, synthesis and biological evaluation of novel aminopyrazole- and 7-azaindole-based Nek1 inhibitors and their effects on zebrafish kidney development” (Bioorg Med Chem Lett, 2021)

What was measured:
[1] = target: T1, Serine/threonine-protein kinase Nek1 (Homo sapiens, UniProt Q96PY6); assay: Inhibition of human NEK1 using myelin basic protein as substrate assessed as residual activity in presence of [gamma-33P]-ATP by radiometric hotspot kinase assay relative to control
T1 sequence (Q96PY6 whole entry): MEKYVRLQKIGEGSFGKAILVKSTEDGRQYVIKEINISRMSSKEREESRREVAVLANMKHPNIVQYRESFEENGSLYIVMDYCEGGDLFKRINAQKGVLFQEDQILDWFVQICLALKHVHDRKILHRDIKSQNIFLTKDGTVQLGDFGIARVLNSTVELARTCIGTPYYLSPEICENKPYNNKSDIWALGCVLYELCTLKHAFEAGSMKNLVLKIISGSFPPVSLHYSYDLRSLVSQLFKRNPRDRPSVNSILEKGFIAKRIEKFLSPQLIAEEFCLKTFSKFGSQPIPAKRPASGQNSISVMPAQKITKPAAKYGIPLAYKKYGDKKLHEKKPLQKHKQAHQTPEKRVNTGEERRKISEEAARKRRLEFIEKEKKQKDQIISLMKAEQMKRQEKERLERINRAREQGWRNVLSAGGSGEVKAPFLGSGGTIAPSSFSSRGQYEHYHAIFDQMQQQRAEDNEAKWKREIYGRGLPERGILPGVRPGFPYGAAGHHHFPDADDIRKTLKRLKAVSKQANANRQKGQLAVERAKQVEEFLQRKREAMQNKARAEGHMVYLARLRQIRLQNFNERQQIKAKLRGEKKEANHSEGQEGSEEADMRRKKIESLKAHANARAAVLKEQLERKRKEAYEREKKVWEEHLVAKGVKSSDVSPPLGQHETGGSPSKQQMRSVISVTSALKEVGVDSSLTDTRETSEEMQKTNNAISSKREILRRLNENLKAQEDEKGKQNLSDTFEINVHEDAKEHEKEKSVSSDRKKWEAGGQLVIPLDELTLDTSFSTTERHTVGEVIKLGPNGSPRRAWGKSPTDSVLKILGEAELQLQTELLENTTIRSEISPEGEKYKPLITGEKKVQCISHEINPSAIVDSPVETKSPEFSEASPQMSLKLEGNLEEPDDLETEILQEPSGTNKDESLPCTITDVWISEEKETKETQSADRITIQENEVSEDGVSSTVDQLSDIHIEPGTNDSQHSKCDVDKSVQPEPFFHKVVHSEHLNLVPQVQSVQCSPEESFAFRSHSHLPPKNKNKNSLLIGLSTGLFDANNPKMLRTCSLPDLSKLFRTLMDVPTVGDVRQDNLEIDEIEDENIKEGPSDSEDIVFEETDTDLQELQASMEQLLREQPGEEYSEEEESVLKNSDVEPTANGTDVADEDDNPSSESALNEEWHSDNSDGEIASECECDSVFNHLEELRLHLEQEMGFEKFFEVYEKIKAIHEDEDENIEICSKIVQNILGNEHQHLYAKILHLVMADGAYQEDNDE

[2] = target: Cyclin-dependent kinase 2/cyclin E1 (Homo sapiens) (UniProt P24864+P24941); assay: Inhibition of human recombinant full length C-terminal His6 tagged CDK2/ N-terminal GST-tagged Cyclin E expressed in baculovirus infected Sf21 insect cells using histone H1 as substrate assessed as residual activity at 1 uM pretreated for 20 mins followed by [33P]-ATP addition measured after 120 mins by radiometric hotspot kinase assay relative to control; conditions: time 140.0 min
[3] = target: Vascular endothelial growth factor receptor 2 (Homo sapiens) (UniProt P35968); assay: Inhibition of human recombinant C-terminal His6 tagged VEGFR2 (789 to 1356 residues) expressed in baculovirus infected insect cells assessed as residual activity at 1 uM pretreated for 20 mins followed by [33P]-ATP addition measured after 120 mins by radiometric hotspot kinase assay relative to control; conditions: time 140.0 min
[4] = target: T2, Serine/threonine-protein kinase Nek5 (Homo sapiens) (UniProt Q6P3R8); assay: Inhibition of human recombinant NEK5 assessed as residual activity at 1 uM pretreated for 20 mins followed by [33P]-ATP addition measured after 120 mins by radiometric hotspot kinase assay relative to control; conditions: time 140.0 min
T2 sequence (whole entry): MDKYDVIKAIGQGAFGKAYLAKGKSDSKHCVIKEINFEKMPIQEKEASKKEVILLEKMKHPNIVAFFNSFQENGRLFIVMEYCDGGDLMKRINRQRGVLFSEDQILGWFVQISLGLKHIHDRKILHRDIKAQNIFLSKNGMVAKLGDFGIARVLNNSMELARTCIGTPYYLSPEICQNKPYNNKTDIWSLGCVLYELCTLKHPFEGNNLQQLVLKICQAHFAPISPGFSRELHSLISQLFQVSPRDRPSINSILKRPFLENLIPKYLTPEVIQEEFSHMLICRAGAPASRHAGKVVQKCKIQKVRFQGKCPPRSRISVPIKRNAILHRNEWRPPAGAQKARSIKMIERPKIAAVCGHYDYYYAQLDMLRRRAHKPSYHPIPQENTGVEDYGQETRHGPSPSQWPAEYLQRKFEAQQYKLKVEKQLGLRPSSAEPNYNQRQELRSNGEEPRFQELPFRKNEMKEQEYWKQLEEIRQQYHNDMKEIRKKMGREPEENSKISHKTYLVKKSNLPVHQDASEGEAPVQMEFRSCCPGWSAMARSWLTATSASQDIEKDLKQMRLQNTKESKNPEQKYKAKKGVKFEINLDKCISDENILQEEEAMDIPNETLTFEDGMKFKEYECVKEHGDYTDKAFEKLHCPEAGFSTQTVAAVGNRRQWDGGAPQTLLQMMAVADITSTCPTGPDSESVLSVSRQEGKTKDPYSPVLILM

[5] = Permeability across apical to basolateral side in human Caco-2 cells at pH 6.5 at 1 uM; assay type: ADME, cell-based; conditions: Caco-2, pH 6.5, read-out: permeability
[6] = species on record: Danio rerio; assay: Toxicity in wild type zebra fish model of polycystic kidney disease assessed as minor tubular volume expansion at 0.5 uM incubated for 48 hrs in presence of N-phenyl thiourea further treated with PT-yellow for 20 mins followed by dye washout and incubated in solution containing compound for 96 hrs by fluorescence imaging analysis; assay type: organism-based; conditions: zebrafish, in vivo

Sequence of Vascular endothelial growth factor receptor 2 (Homo sapiens) (P35968 whole entry, the tested form may be a part): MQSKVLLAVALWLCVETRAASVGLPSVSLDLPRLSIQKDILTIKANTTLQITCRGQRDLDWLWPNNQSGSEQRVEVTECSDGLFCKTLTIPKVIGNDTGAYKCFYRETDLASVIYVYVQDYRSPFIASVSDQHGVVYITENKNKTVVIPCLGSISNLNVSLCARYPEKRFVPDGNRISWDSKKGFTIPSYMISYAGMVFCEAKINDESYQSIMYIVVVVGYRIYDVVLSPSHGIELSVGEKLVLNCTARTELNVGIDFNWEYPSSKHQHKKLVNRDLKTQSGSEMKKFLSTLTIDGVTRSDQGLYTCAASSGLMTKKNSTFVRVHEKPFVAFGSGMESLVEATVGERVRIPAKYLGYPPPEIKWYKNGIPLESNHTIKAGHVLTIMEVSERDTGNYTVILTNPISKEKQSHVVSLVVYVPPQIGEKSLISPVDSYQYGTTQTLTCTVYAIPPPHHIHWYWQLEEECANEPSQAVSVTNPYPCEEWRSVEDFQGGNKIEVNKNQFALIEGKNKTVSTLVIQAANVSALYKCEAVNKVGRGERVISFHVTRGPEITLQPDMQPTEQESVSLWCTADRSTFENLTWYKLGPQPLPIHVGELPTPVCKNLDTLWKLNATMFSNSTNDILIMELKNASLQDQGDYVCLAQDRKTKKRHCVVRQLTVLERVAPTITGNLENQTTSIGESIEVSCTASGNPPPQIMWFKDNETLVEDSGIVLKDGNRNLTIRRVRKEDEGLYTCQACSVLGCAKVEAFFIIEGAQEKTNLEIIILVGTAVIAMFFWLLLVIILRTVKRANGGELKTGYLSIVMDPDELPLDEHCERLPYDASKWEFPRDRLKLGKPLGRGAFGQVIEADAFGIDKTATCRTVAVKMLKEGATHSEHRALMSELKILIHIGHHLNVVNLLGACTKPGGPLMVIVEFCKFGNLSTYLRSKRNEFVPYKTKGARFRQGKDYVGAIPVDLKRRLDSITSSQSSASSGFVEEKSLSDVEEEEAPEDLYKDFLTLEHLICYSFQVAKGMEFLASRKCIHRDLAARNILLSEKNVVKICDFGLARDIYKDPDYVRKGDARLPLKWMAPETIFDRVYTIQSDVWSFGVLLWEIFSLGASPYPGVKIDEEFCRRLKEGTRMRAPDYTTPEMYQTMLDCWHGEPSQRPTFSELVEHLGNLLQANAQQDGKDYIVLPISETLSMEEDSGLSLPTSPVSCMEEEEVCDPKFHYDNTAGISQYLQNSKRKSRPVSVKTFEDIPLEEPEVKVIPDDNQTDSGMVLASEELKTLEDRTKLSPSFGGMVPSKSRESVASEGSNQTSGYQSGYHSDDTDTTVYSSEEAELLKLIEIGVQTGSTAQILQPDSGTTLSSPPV

**Q.** For `COC(=O)c1cccc(-c2cnc3[nH]cc(-c4cccnc4)c3c2)c1`, which IC50 [1] is on record?
**A.** Its IC50 is 11.5 nM.

**Q.** What about the Activity [2] of the same compound?
**A.** Its Activity is 1.6%.

**Q.** And the Activity [3]?
**A.** Its Activity is 34.3%.

**Q.** And the Activity [4]?
**A.** The Activity was 10.4%.

**Q.** And the Papp A→B at 1 µM [5]?
**A.** Its Papp A→B at 1 µM is 0.13 ×10⁻⁶ cm/s.

**Q.** What about the Activity [6] of the same compound?
**A.** The Activity was “Toxic”.
